Measured values taken from US20080312287A1, “Compound and Methods For the Treatment of Cancer and Malaria” (University of Washington, priority 2005, published 2008).
Where two headings read alike, the source gives them in different places.

How the values were obtained:
[1] = molecular target: T1, PfPFT (Plasmodium falciparum, UniProt Q8I503+Q8IHP6); assay: PfPFT inhibition, scintillation proximity assay with partially purified PfPFT; type: biochemical; settings: for inhibition at 0.05 µM: read-out: % Inhibition of PfPFT at 50 nM, inhibitor at 50 nM; for inhibition at 0.005 µM: read-out: % Inhibition of PfPFT at 5 nM, inhibitor at 5 nM
T1 sequence (Q8I503 1-521): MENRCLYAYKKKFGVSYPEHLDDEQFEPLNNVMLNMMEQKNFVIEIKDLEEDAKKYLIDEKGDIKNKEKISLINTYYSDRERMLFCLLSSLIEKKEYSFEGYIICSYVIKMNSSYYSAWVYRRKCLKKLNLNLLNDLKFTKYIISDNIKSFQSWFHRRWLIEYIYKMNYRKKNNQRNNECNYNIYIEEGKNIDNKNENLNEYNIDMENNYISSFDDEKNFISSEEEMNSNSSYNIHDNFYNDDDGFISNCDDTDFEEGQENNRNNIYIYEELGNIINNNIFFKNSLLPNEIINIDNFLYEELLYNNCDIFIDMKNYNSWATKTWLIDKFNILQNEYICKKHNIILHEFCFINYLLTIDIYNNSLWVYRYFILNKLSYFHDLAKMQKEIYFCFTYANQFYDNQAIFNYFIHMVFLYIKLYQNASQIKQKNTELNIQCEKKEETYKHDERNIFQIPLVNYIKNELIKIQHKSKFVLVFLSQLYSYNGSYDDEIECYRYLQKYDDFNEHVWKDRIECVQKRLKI
T1 sequence (Q8IHP6 1-923): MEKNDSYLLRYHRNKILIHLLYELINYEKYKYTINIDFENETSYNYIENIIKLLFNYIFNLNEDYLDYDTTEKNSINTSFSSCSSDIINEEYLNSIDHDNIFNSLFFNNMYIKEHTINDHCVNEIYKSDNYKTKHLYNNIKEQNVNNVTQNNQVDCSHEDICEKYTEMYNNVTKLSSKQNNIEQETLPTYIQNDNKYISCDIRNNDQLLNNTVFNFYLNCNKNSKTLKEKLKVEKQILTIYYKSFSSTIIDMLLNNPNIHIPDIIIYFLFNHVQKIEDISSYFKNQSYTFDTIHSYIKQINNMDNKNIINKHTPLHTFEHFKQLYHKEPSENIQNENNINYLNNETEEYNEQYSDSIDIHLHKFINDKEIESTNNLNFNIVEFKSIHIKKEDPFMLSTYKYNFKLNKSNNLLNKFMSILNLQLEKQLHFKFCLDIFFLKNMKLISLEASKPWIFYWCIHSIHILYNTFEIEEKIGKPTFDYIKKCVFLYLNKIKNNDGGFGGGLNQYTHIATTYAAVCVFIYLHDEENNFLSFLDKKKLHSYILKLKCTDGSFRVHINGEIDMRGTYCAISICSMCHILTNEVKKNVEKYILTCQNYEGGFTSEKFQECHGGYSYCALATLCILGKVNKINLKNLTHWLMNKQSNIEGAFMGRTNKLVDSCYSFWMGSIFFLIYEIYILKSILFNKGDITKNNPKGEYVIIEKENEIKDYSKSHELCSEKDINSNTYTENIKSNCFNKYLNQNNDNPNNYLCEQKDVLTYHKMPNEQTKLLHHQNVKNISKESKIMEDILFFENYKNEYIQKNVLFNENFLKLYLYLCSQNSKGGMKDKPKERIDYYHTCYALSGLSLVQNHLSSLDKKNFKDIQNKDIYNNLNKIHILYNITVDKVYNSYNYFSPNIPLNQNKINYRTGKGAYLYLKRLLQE

[2] = test system: P. falciparum K1; assay: P. falciparum ED50 determination, [3H]-hypoxanthine incorporation, strain K1; type: cell-based, Plasmodium falciparum; settings: Plasmodium falciparum
Description: (§1) Plasmodium strains. The P. falciparum strains used in this study were 3D7 (Netherlands, sensitive) provided by Dr. Pradipsinh Rathod from the University of Washington and K1 (Thailand, ChQ-R, Pyr-R) obtained from the MR4Unit of the American Type Culture Collection (ATCC, Manassas, Va.).
(§2) P. falciparum culture. Strains of P. falciparum were sustained in vitro based on experimental techniques as described by Trager and Jensen.^26 Cultures were maintained in RPMI-1640 (Sigma, St. Louis, […].) with 2 mM L-glutamine, 25 mM HEPES, 33 mM NaHCO3, 20 μg/ml gentamicin sulfate and 20% (v/v) heat-inactivated human plasma type A+ (R^P-20P). Type A+ erythrocytes were obtained from lab donors, washed three times with RPMI, re-suspended in 50% RPMI, and stored at 4° C. Parasites were grown in 10 mL of a 2% hematocrit/RP-20P (v/v) in 50-mL flasks under a 5% CO2, 5% O2, and 90% N2 atmosphere.
(§3) P. falciparum ED50 determination. One […]L of PFTI dissolved in DMSO was added to each well of a 96-well plate followed by the addition of 200 μL of P. falciparum culture at parasitemia and hematocrit of 0.5%. Plates were flushed with 5% CO2, 5% O2, and 90% N2 then incubated at 37° C. for 48 hr. [8-^3H]-hypoxanthine (0.3 μCi, 20 Ci/mmol, American Radiolabeled Chemicals) in 30 μL RP-20P was added to cultures and incubated for an additional 24 hours. Cells were harvested onto filter mats by a Multiharvester (Skatron, Sunnyvale, Calif.) and the radioactivity incorporated into the parasites was counted on a β-scintillation counter. The background level detected with uninfected erythrocytes was subtracted from the data. The ^3H-incorporation into infected RBCs with 1 μL DMSO vehicle alone represents 100% malaria growth. ED50 values were determined by linear regression analysis of the plots of ^3H-hypoxanthine incorporation versus concentration of compound.

[3] = test system: P. falciparum 3D7; assay: P. falciparum ED50 determination, [3H]-hypoxanthine incorporation, strain 3D7; type: cell-based, Plasmodium falciparum; settings: Plasmodium falciparum
Description: as §1, §2, §3

[4] = K1, strain K1, concentration decreasing hypoxanthine incorporation into parasites twofold, read-out: ED50 K1
[5] = 3D7, strain 3D7, concentration decreasing hypoxanthine incorporation into parasites twofold, read-out: ED50 3D7

Compound | inhibition at 0.05 µM [1] | EC50 [2, 4] | inhibition at 0.005 µM [1] | EC50 [3, 5] | IC50 ([1]; concentration decreasing transferase activity twofold) | activity in words ([1]; SAR discussion of Table 4) | EC50 ([2]; K1, read-out: ED50 K1) | EC50 ([3]; 3D7, read-out: ED50 3D7)
O=S(=O)(c1ccc2ccccc2c1)N(CCN(Cc1cnc[nH]1)c1ccccc1)Cc1ccccc1 [Compound 3e, Naphthalene-2-sulfonic acid benzyl-{2-[(3H-imidazol-4-ylmethyl)-phenyl-amino]-ethyl}-amide] | 0% |  |  |  |  |  |  | 
Cn1cnc(S(=O)(=O)N(CCN(Cc2cncn2C)c2ccc(C#N)cc2)CC2CCOCC2)c1 [Compound 8r, 1-Methyl-1H-imidazole-4-sulfonic acid {2-[(4-cyano-phenyl)-(3-methyl-3H-imidazol-4-ylmethyl)-amino]-ethyl}-(tetrahydro-pyran-4-ylmethyl)-amide] | 84% | 400 nM | 28% | 575 nM |  |  |  | 
C=C(Br)CN(CCN(Cc1cncn1C)c1ccc(C#N)cc1)S(=O)(=O)c1cn(C)cn1 [Compound 8n, 1-Methyl-1H-imidazole-4-sulfonic acid (2-bromo-allyl)-{2-[(4-cyano-phenyl)-(3-methyl-3H-imidazol-4-ylmethyl)-amino]-ethyl}-amide] | 80% | > 5000 nM | 25% | > 5000 nM |  |  |  | 
Cn1cnc(S(=O)(=O)N(CCN(Cc2cncn2C)c2ccc(C#N)cc2)Cc2ccc(-n3cccc3)cc2)c1 [Compound 8ai, 1-Methyl-1H-imidazole-4-sulfonic acid {2-[(4-cyano-phenyl)-(3-methyl-3H-imidazol-4-ylmethyl)-amino]-ethyl}-(4-pyrrol-1-yl-benzyl)-amide] | 85% | 410 nM | 39% | 257 nM | 11 nM |  |  | 
C=CCN(CCN(Cc1cncn1C)c1ccc(C#N)cc1)S(=O)(=O)c1cn(C)cn1 [Compound 8l, 1-Methyl-1H-imidazole-4-sulfonic acid allyl-{2-[(4-cyano-phenyl)-(3-methyl-3H-imidazol-4-ylmethyl)-amino]-ethyl}-amide] | 42% | > 5000 nM | 1% | > 5000 nM |  |  |  | 
Cn1cnc(S(=O)(=O)N(CCN(Cc2cnc[nH]2)c2ccc(Br)cc2)Cc2ccccc2)c1 [Compound 8a, 1-Methyl-1H-imidazole-4-sulfonic acid benzyl-{2-[(4-bromo-phenyl)-(3H-imidazol-4-ylmethyl)-amino]-ethyl}-amide] | 80% |  |  |  |  |  |  | 
CC(C)C(=O)N(CCN(Cc1cncn1C)c1ccc(C#N)cc1)Cc1ccccc1 [Compound 8k, N-Benzyl-N-{2-[(4-cyano-phenyl)-(3-methyl-3H-imidazol-4-ylmethyl)-amino]-ethyl}-isobutyramide] | 61% | > 5000 nM | 0% | 2000 nM |  |  |  | 
CN(C)c1cccc2c(S(=O)(=O)N(CCN(Cc3cnc[nH]3)c3ccccc3)Cc3ccccc3)cccc12 [Compound 3g, 5-Dimethylamino-naphthalene-1-sulfonic acid benzyl-{2-[(3H-imidazol-4-ylmethyl)-phenyl-amino]-ethyl}-amide] | 0% |  |  |  |  |  |  | 
Cn1cncc1CN(CCN(Cc1ccccc1)S(=O)(=O)c1cccs1)c1ccc(C#N)cc1 [Compound 8f, Thiophene-2-sulfonic acid benzyl-{2-[(4-cyano-phenyl)-(3-methyl-3H-imidazol-4-ylmethyl)-amino]-ethyl}-amide] | 74% | 1120 nM | 17% | 550 nM |  |  |  | 
CC(=O)N1CCC(CN(CCN(Cc2cncn2C)c2ccc(C#N)cc2)S(=O)(=O)c2cn(C)cn2)CC1 [Compound 8t, 1-Methyl-1H-imidazole-4-sulfonic acid (1-acetyl-piperidin-4-ylmethyl)-{2-[(4-cyano-phenyl)-(3-methyl-3H-imidazol-4-ylmethyl)-amino]-ethyl}-amide] | 44% | 3500 nM | 8% | 5000 nM |  |  |  | 
Cn1cnc(S(=O)(=O)N(CCN(Cc2cncn2C)c2ccc(C#N)cc2)CC2CCNCC2)c1 [Compound 8s, 1-Methyl-1H-imidazole-4-sulfonic acid {2-[(4-cyano-phenyl)-(3-methyl-3H-imidazol-4-ylmethyl)-amino]-ethyl}-piperidin-4-ylmethyl-amide] | 5% | > 5000 nM | 5% | > 5000 nM |  | inactive |  | 
Cn1cnc(S(=O)(=O)N(CCN(Cc2cnc[nH]2)c2ccccc2)Cc2ccccc2)c1 [Compound 3c, 1-Methyl-1H-imidazole-4-sulfonic acid benzyl-{2-[(3H-imidazol-4-ylmethyl)-phenyl-amino]-ethyl}-amide] | 32% |  |  |  |  |  |  | 
Cn1cnc(S(=O)(=O)N(CCN(Cc2cncn2C)c2ccc(C#N)cc2)Cc2cccnc2)c1 [Compound 8ab, 1-Methyl-1H-imidazole-4-sulfonic acid {2-[(4-cyano-phenyl)-(3-methyl-3H-imidazol-4-ylmethyl)-amino]-ethyl}-pyridin-3-ylmethyl-amide] | 74% | 4250 nM | 18% | 2800 nM |  |  |  | 
CC(=O)N(CCN(Cc1cncn1C)c1ccc(C#N)cc1)Cc1ccccc1 [Compound 8j, N-Benzyl-N-{2-[(4-cyano-phenyl)-(3-methyl-3H-imidazol-4-ylmethyl)-amino]-ethyl}-acetamide] | 56% |  | 0% |  |  |  | > 5000 nM | 2500 nM
Cc1ccc(CS(=O)(=O)N(CCN(Cc2cnc[nH]2)c2ccccc2)Cc2ccccc2)cc1 [Compound 3d, N-Benzyl-N-{2-[(3H-imidazol-4-ylmethyl)-phenyl-amino]-ethyl}-C-p-tolyl-methanesulfonamide] | 3% |  |  |  |  |  |  | 
O=S(=O)(c1cccc2cccnc12)N(CCN(Cc1cnc[nH]1)c1ccccc1)Cc1ccccc1 [Compound 3f, Quinoline-8-sulfonic acid benzyl-{2-[(3H-imidazol-4-ylmethyl)-phenyl-amino]-ethyl}-amide] | 0% |  |  |  |  |  |  | 
